Test results reported in PubChem BioAssay (NCI).
Where “and” joins values, the source holds several entries; their conditions need not be identical. Equal values may be shown once.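 Following 48 hours of exposure in 96-well plates, responses at five concentrations were used to interpolate endpoints linearly. At the GI50, growth is halved. TGI is the concentration that stops growth completely.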

Assays:
Assay in all cases: NCI tumour cell line growth inhibition, 48 h
[1] = tested on: 786-0 renal
[2] = tested on: A498 renal
[3] = tested on: A549 NSCLC
[4] = tested on: ACHN renal
[5] = tested on: BT-549 breast
[6] = tested on: CAKI-1 renal
[7] = tested on: COLO 205 colon
[8] = tested on: DU-145 prostate
[9] = tested on: EKVX NSCLC
[10] = tested on: HCC-2998 colon
[11] = tested on: HCT-116 colon
[12] = tested on: HCT-15 colon
[13] = tested on: HL-60(TB) leukemia
[14] = tested on: HOP-62 NSCLC
[15] = tested on: HOP-92 NSCLC
[16] = tested on: HS 578T breast
[17] = tested on: HT29 colon
[18] = tested on: IGROV1 ovarian
[19] = tested on: K-562 leukemia
[20] = tested on: KM12 colon
[21] = tested on: LOX IMVI melanoma
[22] = tested on: M14 melanoma
[23] = tested on: MALME-3M melanoma
[24] = tested on: MCF7 breast
[25] = tested on: MDA-MB-231 breast
[26] = tested on: MDA-MB-435
[27] = tested on: MDA-N
[28] = tested on: MOLT-4 leukemia
[29] = tested on: NCI-H226 lung
[30] = tested on: NCI-H23 lung
[31] = tested on: NCI-H460 lung
[32] = tested on: OVCAR-3 ovarian
[33] = tested on: OVCAR-4 ovarian
[34] = tested on: OVCAR-5 ovarian
[35] = tested on: PC-3 prostate
[36] = tested on: RPMI-8226 leukemia
[37] = tested on: RXF 393 renal
[38] = tested on: SF-268 CNS
[39] = tested on: SF-295 CNS
[40] = tested on: SF-539 CNS
[41] = tested on: SK-MEL-28 melanoma
[42] = tested on: SK-MEL-5 melanoma
[43] = tested on: SN12C renal
[44] = tested on: SNB-19 CNS
[45] = tested on: SR leukemia
[46] = tested on: SW-620 colon
[47] = tested on: T-47D breast
[48] = tested on: TK-10 renal
[49] = tested on: UACC-257 melanoma
[50] = tested on: UACC-62 melanoma
[51] = tested on: UO-31 renal
[52] = tested on: CCRF-CEM leukemia
[53] = tested on: NCI-H522 lung
[54] = tested on: OVCAR-8 ovarian
[55] = tested on: SK-OV-3 ovarian
[56] = tested on: SNB-75 CNS
[57] = tested on: U251 CNS

`CCc1c2c(nc3cc4c(cc13)OCO4)-c1cc3c(c(=O)n1C2)COC(=O)[C@]3(O)CC` was tested, and the TGI [1] was greater than 100000 nM, the GI50 [2] was 9.7 nM and 39.7 nM and the TGI [2] was 428 nM and 834 nM. For the same molecule, the TGI [3] was 2080 nM, the GI50 [4] was less than 1 nM and the TGI [4] was 146 nM and 37.6 nM. For the same molecule, the GI50 [5] was 65.4 nM and 36.7 nM, the TGI [5] was 5290 nM and 782 nM and the GI50 [6] was less than 1 nM. It also gave a GI50 [7] of 1170 nM, a TGI [7] greater than 100000 nM and a TGI [8] greater than 100000 nM. For the same molecule, the GI50 [9] was 4310 nM and 1800 nM, the TGI [9] was greater than 100000 nM and the GI50 [10] was 44.3 nM and 361 nM. The TGI [10] was greater than 100000 nM, the GI50 [11] was 1310 nM and the TGI [11] was greater than 100000 nM. For the same molecule, the GI50 [12] was 182 nM and 137 nM, the TGI [12] was greater than 100000 nM and the GI50 [13] was less than 1 nM. It also gave a TGI [14] greater than 100000 nM, a GI50 [15] of 19 nM and a TGI [15] greater than 100000 nM. The TGI [16] was greater than 100000 nM, the GI50 [17] was 53.7 nM and the TGI [17] was greater than 100000 nM. The GI50 [18] was 330 nM and 390 nM, the TGI [18] was greater than 100000 nM and the TGI [19] was greater than 100000 nM. The GI50 [20] was 184 nM and 191 nM, the TGI [20] was greater than 100000 nM and the GI50 [21] was 1.97 nM. For the same molecule, the TGI [21] was 122 nM and 520 nM, the GI50 [22] was less than 1 nM and the TGI [22] was greater than 100000 nM. For the same molecule, the GI50 [23] was 289 nM, the TGI [23] was greater than 100000 nM and the GI50 [24] was less than 1 nM. The GI50 [25] was 72.6 nM and 167 nM, the TGI [25] was greater than 100000 nM and the GI50 [26] was 18.2 nM and 96.1 nM. The TGI [26] was greater than 100000 nM, the TGI [27] was greater than 100000 nM and the GI50 [28] was less than 1 nM. For the same molecule, the TGI [28] was 10.6 nM and 33.9 nM, the GI50 [29] was less than 1 nM and the TGI [29] was 227 nM. It also gave a GI50 [30] of 2.63 nM, a TGI [30] of 1080 nM and a GI50 [31] of less than 1 nM. The TGI [31] was 1090 nM and 617 nM, the GI50 [32] was 476 nM and 1870 nM and the TGI [32] was greater than 100000 nM. The GI50 [33] was 323 nM and 1270 nM, the TGI [33] was greater than 100000 nM and the GI50 [34] was 885 nM and 313 nM. The TGI [34] was 2270 nM, the GI50 [35] was 277 nM and 122 nM and the TGI [35] was greater than 100000 nM. For the same molecule, the GI50 [36] was 3.15 nM, the TGI [36] was 391 nM and the TGI [37] was 117 nM and 478 nM. The GI50 [38] was 9.07 nM, the TGI [38] was 622 nM and the GI50 [39] was less than 1 nM. The GI50 [40] was less than 1 nM, the TGI [40] was 50.5 nM and the GI50 [41] was 764 nM and 1140 nM. The TGI [41] was greater than 100000 nM, the TGI [42] was 64.8 nM and 143 nM and the TGI [43] was greater than 100000 nM. For the same molecule, the GI50 [44] was 16.4 nM, the TGI [44] was 455 nM and the GI50 [45] was less than 1 nM. The TGI [46] was greater than 100000 nM, the GI50 [47] was less than 1 nM and the GI50 [48] was 294 nM and 1910 nM. For the same molecule, the GI50 [49] was 135 nM and 194 nM, the TGI [49] was 2040 nM and 2710 nM and the GI50 [50] was less than 1 nM. The TGI [50] was 195 nM and 409 nM, the GI50 [51] was 10.3 nM and the TGI [51] was 401 nM and 68.9 nM.

For `O=c1[nH]cnc2c(C3OC(CO)C(O)C3O)c[nH]c12` (centres undefined), the TGI [1] was greater than 100000 nM, the TGI [3] was greater than 100000 nM and the TGI [4] was greater than 100000 nM. The TGI [5] was greater than 100000 nM, the TGI [6] was greater than 100000 nM and the TGI [52] was greater than 100000 nM. It also gave a TGI [7] greater than 100000 nM, a TGI [8] greater than 100000 nM and a TGI [9] greater than 100000 nM. The TGI [10] was greater than 100000 nM, the TGI [11] was greater than 100000 nM and the TGI [13] was greater than 100000 nM. The TGI [14] was greater than 100000 nM, the TGI [15] was greater than 100000 nM and the TGI [16] was greater than 100000 nM. For the same molecule, the TGI [17] was greater than 100000 nM, the TGI [18] was greater than 100000 nM and the TGI [19] was greater than 100000 nM. The TGI [20] was greater than 100000 nM, the TGI [21] was greater than 100000 nM and the TGI [22] was greater than 100000 nM. It also gave a TGI [23] greater than 100000 nM, a TGI [24] greater than 100000 nM and a TGI [25] greater than 100000 nM. It also gave a TGI [26] greater than 100000 nM, a TGI [27] greater than 100000 nM and a TGI [28] greater than 100000 nM. It also gave a TGI [29] greater than 100000 nM, a TGI [30] greater than 100000 nM and a TGI [31] greater than 100000 nM. The TGI [53] was greater than 100000 nM, the TGI [32] was greater than 100000 nM and the TGI [33] was greater than 100000 nM. The TGI [34] was greater than 100000 nM, the TGI [54] was greater than 100000 nM and the TGI [35] was greater than 100000 nM. The TGI [36] was greater than 100000 nM, the TGI [37] was greater than 100000 nM and the TGI [38] was greater than 100000 nM. It also gave a TGI [39] greater than 100000 nM, a TGI [40] greater than 100000 nM and a TGI [41] greater than 100000 nM. It also gave a TGI [42] greater than 100000 nM, a TGI [55] greater than 100000 nM and a TGI [43] greater than 100000 nM. For the same molecule, the TGI [44] was greater than 100000 nM, the TGI [56] was greater than 100000 nM and the TGI [45] was greater than 100000 nM. For the same molecule, the TGI [46] was greater than 100000 nM, the TGI [47] was greater than 100000 nM and the TGI [48] was greater than 100000 nM. The TGI [57] was greater than 100000 nM, the TGI [49] was greater than 100000 nM and the TGI [50] was greater than 100000 nM. It also gave a TGI [51] greater than 100000 nM.
